BindingDB's records for doi:10.1016/j.bioorg.2016.12.009 (Universiti Teknologi Mara (Uitm), 2017)

Target: Alpha-glucosidase MAL12 (Saccharomyces cerevisiae (strain ATCC 204508 / S288c), UniProt P53341)
Assay: Baker's Yeast α-Glucosidase Inhibition Assay
Details: pH 6.8; 37 °C
Experimental: The enzyme inhibition was evaluated according to the method previously reported by Zawawi et al. [Zawawi et al., Bioorg. Chem., 23:3119] with slight modification. Various concentration of test compounds (10 μL) were dissolved in DMSO (ranging from 200 to 6.25 μg/mL) and premixed with 95 μL of 50 mM phosphate buffer (pH 6.8). Then, 25 μL of enzyme (0.0625 U/mL) in phosphate buffer saline was added into each well and the plate was incubated at 37 °C for 10 min. Afterward, 25 μl of PNPG in phosphate buffer saline (5 mM) were added and pre-read of the plate was taken by using a microplate reader (Spectrostar Nano BMG Labtech, Germany). The reaction mixture was then incubated at 37 °C for 30 min and change in absorbance at 405 nm was monitored up to 30 min. For negative control, the test samples were replaced with 10 μL of DMSO and acarbose was used as positive control. All experiments were triplicated and the results were expressed as the mean ± S.E.M of three determinations.

Alpha-glucosidase MAL12, sequence (P53341 whole entry): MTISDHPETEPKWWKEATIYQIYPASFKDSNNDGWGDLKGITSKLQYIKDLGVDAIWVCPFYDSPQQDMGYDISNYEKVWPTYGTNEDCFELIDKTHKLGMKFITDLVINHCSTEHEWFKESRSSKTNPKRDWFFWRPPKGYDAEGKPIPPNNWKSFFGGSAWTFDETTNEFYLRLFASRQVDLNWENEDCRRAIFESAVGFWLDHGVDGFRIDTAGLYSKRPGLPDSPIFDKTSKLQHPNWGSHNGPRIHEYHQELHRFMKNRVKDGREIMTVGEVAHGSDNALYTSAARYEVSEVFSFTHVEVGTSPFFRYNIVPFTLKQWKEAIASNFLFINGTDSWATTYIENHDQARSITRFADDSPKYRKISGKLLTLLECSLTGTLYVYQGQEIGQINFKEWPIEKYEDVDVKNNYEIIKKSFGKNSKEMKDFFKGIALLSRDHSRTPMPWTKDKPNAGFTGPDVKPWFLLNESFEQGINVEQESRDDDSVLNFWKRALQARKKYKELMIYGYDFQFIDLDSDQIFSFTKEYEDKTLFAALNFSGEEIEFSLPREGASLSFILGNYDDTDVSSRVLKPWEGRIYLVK

Compound	IC50 [µM]
Cc1cc2nc(-c3ccc(C(=O)NNC(=S)Nc4ccc(C(F)(F)F)cc4)cc3)[nH]c2cc1C [2-(4-(5,6-Dimethyl-1H-benzo[d]imidazol-2-yl)benzoyl)-N-(4(trifluoromethyl)phenyl)hydrazinecarbothioamide (15)]	163
COc1ccccc1NC(=S)NNC(=O)c1ccc(-c2nc3cc(C)c(C)cc3[nH]2)cc1 [2-(4-(5,6-Dimethyl-1H-benzo[d]imidazol-2-yl)benzoyl)-N-(2-methoxyphenyl)hydrazinecarbothioamide (4)]	346
Cc1cc2nc(-c3ccc(C(=O)NNC(=S)Nc4cccc(F)c4)cc3)[nH]c2cc1C [2-(4-(5,6-Dimethyl-1H-benzo[d]imidazol-2-yl)benzoyl)-N-(3-fluorophenyl)hydrazinecarbothioamide (7)]	247
Cc1cc2nc(-c3ccc(C(=O)NNC(=S)Nc4ccc([N+](=O)[O-])cc4)cc3)[nH]c2cc1C [2-(4-(5,6-Dimethyl-1H-benzo[d]imidazol-2-yl)benzoyl)-N-(4-nitrophenyl)hydrazinecarbothioamide (14)]	35.8
Cc1cc2nc(-c3ccc(C(=O)NNC(=S)Nc4cccc([N+](=O)[O-])c4)cc3)[nH]c2cc1C [2-(4-(5,6-Dimethyl-1H-benzo[d]imidazol-2-yl)benzoyl)-N-(3-nitrophenyl)hydrazinecarbothioamide (9)]	117
Cc1cc2nc(-c3ccc(C(=O)NNC(=S)Nc4ccccc4Cl)cc3)[nH]c2cc1C [N-(2-chlorophenyl)-2-(4-(5,6-dimethyl-1H-benzo[d]imidazol-2-yl)benzoyl)hydrazinecarbothioamide (2)]	284
Cc1cc2nc(-c3ccc(C(=O)NNC(=S)Nc4cccc(Br)c4)cc3)[nH]c2cc1C [N-(3-bromophenyl)-2-(4-(5,6-dimethyl-1H-benzo[d]imidazol-2-yl)benzoyl)hydrazinecarbothioamide (6)]	178
COc1cccc(NC(=S)NNC(=O)c2ccc(-c3nc4cc(C)c(C)cc4[nH]3)cc2)c1 [2-(4-(5,6-Dimethyl-1H-benzo[d]imidazol-2-yl)benzoyl)-N-(3-methoxyphenyl)hydrazinecarbothioamide (8)]	71.8
Cc1cc2nc(-c3ccc(C(=O)NNC(=S)Nc4ccccc4Br)cc3)[nH]c2cc1C [N-(2-bromophenyl)-2-(4-(5,6-dimethyl-1H-benzo[d]imidazol-2-yl)benzoyl)hydrazinecarbothioamide (1)]	129
Cc1cc2nc(-c3ccc(C(=O)NNC(=S)Nc4ccc(Cl)c(Cl)c4)cc3)[nH]c2cc1C [N-(3,4-dichlorophenyl)-2-(4-(5,6-dimethyl-1H-benzo[d]imidazol-2-yl)benzoyl)hydrazinecarbothioamide (5)]	61.9
Cc1cc2nc(-c3ccc(C(=O)NNC(=S)Nc4ccccc4F)cc3)[nH]c2cc1C [2-(4-(5,6-dimethyl-1H-benzo[d]imidazol-2-yl)benzoyl)-N-(2-fluorophenyl)hydrazinecarbothioamide (3)]	231

More lines, now with the values ahead:

IC50 [µM]	Compound
277	Cc1cc2nc(-c3ccc(C(=O)NNC(=S)Nc4ccc(F)cc4)cc3)[nH]c2cc1C [2-(4-(5,6-Dimethyl-1H-benzo[d]imidazol-2-yl)benzoyl)-N-(4-fluorophenyl)hydrazinecarbothioamide (12)]
305	COc1ccc(NC(=S)NNC(=O)c2ccc(-c3nc4cc(C)c(C)cc4[nH]3)cc2)cc1 [2-(4-(5,6-Dimethyl-1H-benzo[d]imidazol-2-yl)benzoyl)-N-(4-methoxyphenyl)hydrazinecarbothioamide (13)]
187	Cc1cc2nc(-c3ccc(C(=O)NNC(=S)Nc4ccc(Cl)cc4)cc3)[nH]c2cc1C [N-(4-chlorophenyl)-2-(4-(5,6-dimethyl-1H-benzo[d]imidazol-2-yl)benzoyl)hydrazinecarbothioamide (11)]
219	Cc1cccc(NC(=S)NNC(=O)c2ccc(-c3nc4cc(C)c(C)cc4[nH]3)cc2)c1 [2-(4-(5,6-Dimethyl-1H-benzo[d]imidazol-2-yl)benzoyl)-N-(m-tolyl)hydrazinecarbothioamide (16)]
298	Cc1ccc(NC(=S)NNC(=O)c2ccc(-c3nc4cc(C)c(C)cc4[nH]3)cc2)cc1 [2-(4-(5,6-Dimethyl-1H-benzo[d]imidazol-2-yl)benzoyl)-N-(p-tolyl)hydrazinecarbothioamide (17)]
50.6	Cc1cc2nc(-c3ccc(C(=O)NNC(=S)Nc4ccc(Br)cc4)cc3)[nH]c2cc1C [N-(4-bromophenyl)-2-(4-(5,6-dimethyl-1H-benzo[d]imidazol-2-yl)benzoyl)hydrazinecarbothioamide (10)]
